# Measurements taken from patent US20120289681A1, “CONJUGATES OF CELL-PENETRATING PEPTIDES AND PHOSPHORESCENT METALLOPORPHYRINS FOR INTRACELLULAR OXYGEN MEASUREMENT” (UNIVERSITY COLLEGE CORK, NATIONAL UNIVERSITY OF IRELAND CORK, priority 2009, published 2012).
# Starred links: 1 amine or outer side, 2 acyl side, 3 side chain; linkers in the order of their positions; H or OH if unused. Non-standard residues stand in square brackets, D forms with d. Residues, ends and D or L forms follow the SMILES beside them. No end group written: not given here. *: point of attachment. X1 = CCOC(=O)CCC1=C(C)c2cc3[nH]c(cc4nc(cc5[nH]c(cc1n2)c(C)c5CCC(=O)OCC)C(C)=C4CCC(=O)NCCNC(=O)CCN1C(=O)CC(*)C1=O)c(C)c3CCC(=O)OCC; X2 = CC1=C(CCC(=O)O)c2cc3[nH]c(cc4nc(cc5[nH]c(cc1n2)c(CCC(=O)O)c5C)C(CCC(=O)*)=C4C)c(CCC(=O)O)c3C; X3 = S=C(Nc1ccc(CCN[*:1])cc1)[*:2]; PtCP‑NCS = not defined here
# Columns and labels:
# Type in all cases: cell-based
# HCT116 cells = test: Cell loading with O2 probes in HCT116 cells
# Experimental: PC12 cells were seeded in standard 96-well plates pre-coated with collagen IV at 5×10^4 cells/well, and differentiated for 3-5 days in RPMI supplemented with 1% horse serum, P/S, and 100 ng/ml nerve growth factor. HepG2 cells were cultured in DMEM supplemented with 10% FBS, 2 mM L-glutamine and P/S, CHO—in Ex-Cell CHO DHFR^− medium supplemented with 4 mM L-glutamine and 1 μM methotrexate, HCT116—in McCoy medium supplemented with 10% FBS, 2 mM L-glutamine and P/S. The samples with cells were then loaded by incubating them with 1-10 μM of the O2 probe (prepared as described in Example 1) in regular medium at 37° C., 5% CO2, for the required period of time. After incubation the cells were washed 3 times with medium and 0.1 ml of fresh medium were added to each well. For comparison, some samples with cells were loaded with 1.2 μM PtCP-BSA probe (Luxcel Biosciences) in the presence of 6 μM Endo-Porter, as previously described (Zhdanov A V et al—J Biol Chem 283:5650-5661; 2008). The plate with loaded cells and control samples was then measured on a time-resolved fluorescence (TR-F) plate reader Victor 2 (PerkinElmer) set at 37° C., using 340 nm excitation and 642 nm emission filters. Each well was measured several times by taking TR-F intensity reading at delay time of 30 μs and gate time 100 μs. Measured TR-F signals were averaged and used to assess the efficiency of loading. […]
# [1] = Cell viability assessment by total cellular ATP (CellTiter-Glo); conditions: rat, differentiated PC12 cells
# Experimental: Cell viability was assessed by measuring total cellular ATP in the loaded cells using CellTiter-Glo luminescent kit (Promega). PC12 cells were seeded into 96 well plates at concentration 50,000/well, differentiated for 3 days, loaded with peptide probe at a concentration 10 uM for 21 hrs, then washed. CellTiter-Glo reagent was then added to each well and chemiluminescence was measured on the Victor2 plate reader (Perkin-Elmer). The total luminescence signal of unloaded cells was taken as 100% viability. For the cells loaded with probes, no significant changes in ATP were observed and cell viability was retained at 93-95%.
# PC12 cells [2] = test: Respiratory response of probe-loaded cells to stimulation with FCCP (lifetime on TR-F reader); conditions: 1 uM FCCP
# Experimental: (§1) PC12 cells (seeded at 50,000 cells/well in standard 96 well plates and differentiated under standard conditions) were loaded with the cell-penetrating O2 probes in standard medium, using 1-10 uM probe concentrations, volume 100 ul/well and incubation time ranging from 20 min to 24 hrs. After probe loading wells were carefully washed three times with DME medium without phenol red and containing NGF. The same protocol was used for loading of adherent HCT116, HepG2 and SHSY5Y cells, using corresponding media.
# Measurement of the cells loaded with probes was conducted on a TR-F plate reader Victor 2 (PerkinElmer, USA) at 37° C. as described in (O'Riordan T C et al—Anal Chem 79:9414-9419; 2007), using 340 nm excitation and 642 nm emission filters. Each well was measured repetitively every 1.8 minutes by taking two TR-F intensity readings at delay times of 30 μs (T1) and 70 μs (T2), using gate time 100 μs. Fluorescence intensity values at T1 (F1) and T2 (F2) were used for calculation of lifetime values using the following equation:
# Lifetime [us]=(T2−T1)/ln(F1/F2),
# For cell stimulation, the plate was monitored for 10-20 min to reach O2 and temperature equilibrium and obtain basal signals, then quickly withdrawn from the reader, compounds were added to the cells (10 μL of 10× stock solution) and monitoring was resumed. Metabolic effectors were added to the cells at the following final concentrations: 1 uM FCCP, 10 uM antimycin A, 0.5 uM Valinomycin, 5 mM EGTA, 100 mM KCl.
# PC12 cells [3] = test: Cell loading with O2 probes assessed by time-resolved fluorometry (TR-F plate reader)
# Experimental: PC12 cells were seeded in standard 96-well plates pre-coated with collagen IV at 5×10^4 cells/well, and differentiated for 3-5 days in RPMI supplemented with 1% horse serum, P/S, and 100 ng/ml nerve growth factor. HepG2 cells were cultured in DMEM supplemented with 10% FBS, 2 mM L-glutamine and P/S, CHO—in Ex-Cell CHO DHFR^− medium supplemented with 4 mM L-glutamine and 1 μM methotrexate, HCT116—in McCoy medium supplemented with 10% FBS, 2 mM L-glutamine and P/S. The samples with cells were then loaded by incubating them with 1-10 μM of the O2 probe (prepared as described in Example 1) in regular medium at 37° C., 5% CO2, for the required period of time. After incubation the cells were washed 3 times with medium and 0.1 ml of fresh medium were added to each well. For comparison, some samples with cells were loaded with 1.2 μM PtCP-BSA probe (Luxcel Biosciences) in the presence of 6 μM Endo-Porter, as previously described (Zhdanov A V et al—J Biol Chem 283:5650-5661; 2008). The plate with loaded cells and control samples was then measured on a time-resolved fluorescence (TR-F) plate reader Victor 2 (PerkinElmer) set at 37° C., using 340 nm excitation and 642 nm emission filters. Each well was measured several times by taking TR-F intensity reading at delay time of 30 μs and gate time 100 μs. Measured TR-F signals were averaged and used to assess the efficiency of loading.
# as §1
# cells [4] = test: Toxicity of the dye/probe on cells (cell line not stated)
# cells [5] = test: Cell-penetrating / cell-loading ability (cell line not stated)
Compound,loading of HCT116 cells (in words) (HCT116 cells),"viability at 21 h, 10 µM [1]",magnitude of respiratory response to FCCP in lifetime units (PC12 cells [2]),uptake / accumulation in PC12 cells (in words) (PC12 cells [3]),other results
CC1=C(CCC(=O)O)c2cc3[nH]c(cc4nc(cc5[nH]c(cc1n2)c(CCC(=O)O)c5C)C(CCC(=O)NCCc1ccc(NC(=S)N[C@@H](Cc2ccccc2)C(=O)N[C@@H](CCCNC(=N)N)C(=O)N[C@@H](CCCNC(=N)N)C(=O)N[C@@H](CCCNC(=N)N)C(=O)N[C@@H](CCCNC(=N)N)C(=O)N[C@@H](CCCNC(=N)N)C(=O)N[C@@H](CCCNC(=N)N)C(=O)N[C@@H](CCCNC(=N)N)C(=O)N[C@@H](CCCNC(=N)N)C(=O)N[C@@H](CCCNC(=N)N)C(=O)O)cc1)=C4C)c(CCC(=O)O)c3C [PtCP-FR9] (X2-[X3]FRRRRRRRRR-OH; C-terminus assumed),did not load well,93 to 95%,about 2 microseconds,low uptake,–
CCOC(=O)CCC1=C(C)c2cc3[nH]c(cc4nc(cc5[nH]c(cc1n2)c(C)c5CCC(=O)OCC)C(C)=C4CCC(=O)NCCNC(=O)CCN1C(=O)CC(SC[C@H](N)C(=O)N[C@@H](Cc2ccccc2)C(=O)N[C@@H](CCCNC(=N)N)C(=O)N[C@@H](CCCNC(=N)N)C(=O)N[C@@H](CCCNC(=N)N)C(=O)N[C@@H](CCCNC(=N)N)C(=O)N[C@@H](CCCNC(=N)N)C(=O)N[C@@H](CCCNC(=N)N)C(=O)N[C@@H](CCCNC(=N)N)C(=O)N[C@@H](CCCNC(=N)N)C(=O)N[C@@H](CCCNC(=N)N)C(=O)O)C1=O)c(C)c3CCC(=O)OCC (some centres unmarked) [PTCPTE-CFR9] (H-C(X1)FRRRRRRRRR-OH; N-terminus assumed),–,93 to 95%,about 2 microseconds,higher intracellular uptake than PTCPTE-TAT,"increase in probe lifetime on FCCP stimulation (PC12 cells [2]): 2 us; average fluorescence signals (cell loading) (PC12 cells [3]; after 24 h of loading): about 200,000 counts"
Pt-tetrakis(pyridinium)porphine tetrachloride,–,–,–,–,toxicity on cells (in words) (cells [4]): high cyto- and phototoxicity
"PtCP-BSA: conventional cell-impermeable O2 probe (Luxcel Biosciences), loaded with Endo-Porter transfection reagent [reference compound]",–,–,–,–,"average fluorescence signals (cell loading) (PC12 cells [3]; probe loaded by transfection (Endo-Porter)): 60,000 cps"
PtCP-BN: PtCP-NCS derivative labelled on N-terminal amino group of BN (bactenecin) peptide GPRPLPFPRPG ({PtCP‑NCS}-GPRPLPFPRPG; reading uncertain),did not load well,–,–,low uptake,–
PEPP5: MTS-CGR9 peptide MGRTVVVLGGGISGLAAGCGRRRRRRRRR labelled with PTCPTE-MI derivative (PTCPTE-MI label),–,–,–,–,cell-penetrating / cell-loading ability (in words) (cells [5]): high cell loading efficiency
